Assays:
Assay type in all cases: biochemical
[1] = biological target: T1, Human Factor XIIa (hFXIIa) (Homo sapiens, UniProt P00748); experiment: Determination of Human Factor XIIa (hFXIIa) inhibition, fluorogenic substrate IC50 assay; conditions: fluorogenic substrate H-DPro-Phe-Arg-AFC at Km, 25° C., read-out: Human FXIIa IC50
T1 construct: purchased Enzyme Research Laboratories
T1 sequence (P00748 373-615 limits assumed): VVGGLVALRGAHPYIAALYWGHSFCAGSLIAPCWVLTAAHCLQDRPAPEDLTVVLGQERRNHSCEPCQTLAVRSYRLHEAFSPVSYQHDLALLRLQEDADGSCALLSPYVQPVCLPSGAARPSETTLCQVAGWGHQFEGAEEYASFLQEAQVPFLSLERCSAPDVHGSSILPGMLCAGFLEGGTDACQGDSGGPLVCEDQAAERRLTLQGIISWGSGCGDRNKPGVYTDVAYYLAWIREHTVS
T1 sequence (P00748 20-372 partner limits assumed): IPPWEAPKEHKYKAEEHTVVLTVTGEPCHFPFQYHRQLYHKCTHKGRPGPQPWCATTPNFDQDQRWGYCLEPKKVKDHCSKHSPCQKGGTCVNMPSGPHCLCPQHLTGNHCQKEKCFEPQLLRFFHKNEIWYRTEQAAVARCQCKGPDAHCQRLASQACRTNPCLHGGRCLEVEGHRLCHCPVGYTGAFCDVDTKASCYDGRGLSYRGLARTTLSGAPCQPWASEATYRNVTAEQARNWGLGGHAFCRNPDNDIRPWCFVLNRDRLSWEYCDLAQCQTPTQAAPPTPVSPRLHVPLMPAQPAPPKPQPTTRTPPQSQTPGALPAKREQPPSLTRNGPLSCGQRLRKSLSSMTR
Experimental: Determination of Human Factor XIIa (hFXIIa) inhibition
The Km for the cleavage of the substrate by hFXIIa was determined by standard transformation of the Michaelis-Menten equation, with subsequent inhibition assays performed at substrate Km concentration.

[2] = biological target: FXa (Homo sapiens, UniProt P00742); experiment: Related protease inhibition: FXa, fluorogenic substrate; conditions: fluorogenic substrate at Km, 25° C.; H1-H3 = % activity at 40 μM; read-out: IC50 (human FXa) nM
Sequence of FXa (P00742 235-488 limits assumed): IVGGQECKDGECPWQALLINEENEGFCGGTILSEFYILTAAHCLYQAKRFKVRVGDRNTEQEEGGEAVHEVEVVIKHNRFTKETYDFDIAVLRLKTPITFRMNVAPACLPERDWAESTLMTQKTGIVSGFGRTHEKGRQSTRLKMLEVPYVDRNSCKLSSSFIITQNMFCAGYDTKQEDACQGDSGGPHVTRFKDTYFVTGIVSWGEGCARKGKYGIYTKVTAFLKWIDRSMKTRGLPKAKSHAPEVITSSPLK
Sequence of FXa (P00742 41-179 partner limits assumed): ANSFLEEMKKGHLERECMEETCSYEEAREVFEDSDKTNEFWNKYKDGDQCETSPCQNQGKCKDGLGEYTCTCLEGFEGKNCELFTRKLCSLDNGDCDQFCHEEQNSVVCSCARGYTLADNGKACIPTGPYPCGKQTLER
Experimental: (§1) Human serine protease enzyme Plasma Kallikrein, KLK1, FXa, Plasmin, Thrombin and Trypsin were assayed for enzymatic activity using an appropriate fluorogenic substrate at Km concentration, FXIa at fixed substrate concentration of 100 μM and various concentrations of the test compound.

[3] = biological target: Thrombin (Homo sapiens, UniProt P00734); experiment: Related protease inhibition: Thrombin, fluorogenic substrate; conditions: fluorogenic substrate at Km, 25° C.; H1-H3 = % activity at 40 μM; read-out: IC50 (human thrombin) nM
Experimental: as §1

| Structure (SMILES) | IC50 [1] | activity at 40 µM [2] | activity at 40 µM [3] |
| --- | --- | --- | --- |
| CN1CCc2ccc(N3CCc4c(C(=O)NCC5(N)CC5)nn(-c5cccc(Cl)c5)c4C3=O)cc2C1=O [Example 1427, N-((1-aminocyclopropyl)methyl)-1-(3-chlorophenyl)-6-(2-methyl-1-oxo-1,2,3,4-tetrahydroisoquinolin-7-yl)-7-oxo-4,5,6,7-tetrahydro-1H-pyrazolo[3,4-c]pyridine-3-carboxamide] | 300 to 1000 nM | > 80% | > 80% |
| CCNC(=O)c1nn(-c2cccc(Cl)c2)c2c1CCN(c1cccc(N3CC4(COC4)CC3=O)c1)C2=O [Example 1428, 1-(3-chlorophenyl)-N-ethyl-7-oxo-6-(3-(7-oxo-2-oxa-6-azaspiro[3.4]octan-6-yl)phenyl)-4,5,6,7-tetrahydro-1H-pyrazolo[3,4-c]pyridine-3-carboxamide] | 10000 to 40000 nM | > 80% | > 80% |
| CCNC(=O)c1nn(-c2cccc(Cl)c2)c2c1CCN(c1ccc3c(c1)N(C(C)=O)CC31CC1)C2=O [Example 1429, 6-(1′-acetylspiro[cyclopropane-1,3′-indolin]-6′-yl)-1-(3-chlorophenyl)-N-ethyl-7-oxo-4,5,6,7-tetrahydro-1H-pyrazolo[3,4-c]pyridine-3-carboxamide] | 300 to 1000 nM | 20 to 80% | 20 to 80% |
| CCNC(=O)c1nn(-c2cccc(Cl)c2)c2c1CCN(c1cccc(N3CCC4(CC4)C3)c1)C2=O [Example 1430, 6-(3-(5-azaspiro[2.4]heptan-5-yl)phenyl)-1-(3-chlorophenyl)-N-ethyl-7-oxo-4,5,6,7-tetrahydro-1H-pyrazolo[3,4-c]pyridine-3-carboxamide] | 3000 to 10000 nM | > 80% | > 80% |
| CCNC(=O)c1nn(-c2cccc(Cl)c2)c2c1CCN(c1cccc(N3CC4CC4C3)c1)C2=O (stereo not drawn) [Example 1431, 6-(3-(3-azabicyclo[3.1.0]hexan-3-yl)phenyl)-1-(3-chlorophenyl)-N-ethyl-7-oxo-4,5,6,7-tetrahydro-1H-pyrazolo[3,4-c]pyridine-3-carboxamide] | 10000 to 40000 nM | < 20% | 20 to 80% |
| CCNC(=O)c1nn(-c2cccc(Cl)c2)c2c1CCN(c1cccc(N3CCN(C)C(=O)C3)c1)C2=O [Example 1432, 1-(3-chlorophenyl)-N-ethyl-6-(3-(4-methyl-3-oxopiperazin-1-yl)phenyl)-7-oxo-4,5,6,7-tetrahydro-1H-pyrazolo[3,4-c]pyridine-3-carboxamide] | 1000 to 3000 nM | 20 to 80% | < 20% |
| CCNC(=O)c1nn(-c2cccc(Cl)c2)c2c1CCN(c1cc(N3C(=O)CC4CC43)ccc1F)C2=O (stereo not drawn) [Example 1433, 1-(3-chlorophenyl)-N-ethyl-6-(2-fluoro-5-(3-oxo-2-azabicyclo[3.1.0]hexan-2-yl)phenyl)-7-oxo-4,5,6,7-tetrahydro-1H-pyrazolo[3,4-c]pyridine-3-carboxamide] | 300 to 1000 nM | 20 to 80% | > 80% |
| CCNC(=O)c1nn(-c2cccc(Cl)c2)c2c1CCN(c1ccc3c(c1)C(=O)N(C)C1CC3C1)C2=O [Example 1434, 1-(3-chlorophenyl)-N-ethyl-6-(2-methyl-1-oxo-2,3,4,5-tetrahydro-1H-3,5-methanobenzo[c]azepin-8-yl)-7-oxo-4,5,6,7-tetrahydro-1H-pyrazolo[3,4-c]pyridine-3-carboxamide] | 1000 to 3000 nM | 20 to 80% | 20 to 80% |
| CCNC(=O)c1nn(-c2cccc(Cl)c2)c2c1CCN(c1cc3c(cc1F)OCCN(C)C3=O)C2=O [Example 1435, 1-(3-chlorophenyl)-N-ethyl-6-(8-fluoro-4-methyl-5-oxo-2,3,4,5-tetrahydrobenzo[f][1,4]oxazepin-7-yl)-7-oxo-4,5,6,7-tetrahydro-1H-pyrazolo[3,4-c]pyridine-3-carboxamide] | 100 to 300 nM | > 80% | > 80% |
